Measurements: patent US12213984B2, “Immunoregulatory agent” (KYUSHU UNIVERSITY, NATIONAL UNIVERSITY CORPORATION, priority 2015, dated 2025)
Like-named read-outs stand apart in the source and are kept apart here.

Target: T1, DOCK2DHR-2 (lobe B and lobe C of the DHR-2 domain of DOCK2) (Homo sapiens, UniProt Q92608)
T1 construct: polypeptide fragments corresponding to a DHR-2 domain including the lobe B and the lobe C of DOCK2; Histidine-SUMO (N); made in house; host or cells: E. coli Arctic express DE3 (pET28a); Rac in E. coli BL21 DE3 (pGEX-6P-1)
T1 sequence (Q92608 1196-1622): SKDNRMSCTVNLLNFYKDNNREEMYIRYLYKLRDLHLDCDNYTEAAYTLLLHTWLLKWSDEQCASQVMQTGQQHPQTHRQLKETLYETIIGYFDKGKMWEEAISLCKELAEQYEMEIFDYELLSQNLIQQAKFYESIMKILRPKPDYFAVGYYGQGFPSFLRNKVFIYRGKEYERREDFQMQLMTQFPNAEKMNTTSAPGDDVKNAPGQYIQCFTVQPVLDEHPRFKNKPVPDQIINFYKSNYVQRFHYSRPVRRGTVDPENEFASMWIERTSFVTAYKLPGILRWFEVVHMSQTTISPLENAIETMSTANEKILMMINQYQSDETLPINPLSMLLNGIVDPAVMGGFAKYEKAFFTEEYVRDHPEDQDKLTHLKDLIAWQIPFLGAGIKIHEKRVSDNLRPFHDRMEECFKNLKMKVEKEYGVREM
Experiment: in-vitro GEF assay, Rac activation by DOCK2 DHR-2 domain with various steroid compounds (Experimental Example 2)
Assay type: biochemical
Procedure: An examination was performed using various steroid compounds to test their effects on the Rac activation induced by proteins composed of the lobe B and the lobe C of the DHR-2 domain of DOCK2.
As the steroid compounds, cholesterol 3-sulfate (hereinafter, referred to as “C3S” in some cases), cholesterol, cholesterol 3-acetate (hereinafter, referred to as “C3A” in some cases), pregnenolone 3-sulfate (hereinafter, referred to as “PREG3S” in some cases), dehydroepiandrosterone (hereinafter, referred to as “DHEA” in some cases), dehydroepiandrosterone 3-sulfate (hereinafter, referred to as “DHEA3S” in some cases), estrone 3-sulfate (hereinafter, referred to as “Estrone3S” in some cases), estriol 3-sulfate (hereinafter, referred to as “Estriol3S” in some cases), and estradiol 3-sulfate (hereinafter, referred to as “Estradiol3S” in some cases) were used.
More specifically, a DOCK2-DHR-2 domain protein prepared by the same method as described above was incubated for 20 minutes at room temperature in the presence of various steroid compounds at a predetermined concentration dissolved in DMSO or in the presence of DMSO alone (control) under the shielded condition from light, thereby preparing a pretreated substance of GEF. The concentration of DMSO was adjusted such that it became 3% (1% in the final reaction solution) in all samples. Then, by in-vitro GEF assay in which Rac and Bodipy-FL-GTP prepared by the same method as described above were used, Rac activation by the DHR-2 domain was measured.

[1] = Experimental Example 2, Table 1, read-out: IC50 against the Rac activation by DOCK2DHR-2

| SMILES | IC50 [1] | IC50 (IC50 against the Rac activation by DOCK2DHR-2, Experimental Example 2, Table 1) |
| --- | --- | --- |
| C[C@]12CC[C@H](OS(=O)(=O)O)CC1=CC[C@@H]1[C@@H]2CC[C@]2(C)C(=O)CC[C@@H]12 [DHEA3S, dehydroepiandrosterone 3-sulfate] | > 200 µM |  |
| CC(C)CCC[C@@H](C)[C@H]1CC[C@H]2[C@@H]3CC=C4C[C@@H](O)CC[C@]4(C)[C@H]3CC[C@]12C [Cholesterol, cholesterol] | > 200 µM |  |
| C[C@]12CC[C@H](O)CC1=CC[C@@H]1[C@@H]2CC[C@]2(C)C(=O)CC[C@@H]12 [DHEA, dehydroepiandrosterone] |  | > 200 µM |
| CC(=O)C1CCC2C3CC=C4CC(OS(=O)(=O)O)CCC4(C)C3CCC12C (centres unmarked) [PREG3S, pregnenolone 3-sulfate] | 76.6 µM |  |
| C[C@]12CC[C@@H]3c4ccc(OS(=O)(=O)O)cc4CC[C@H]3[C@@H]1CC[C@@H]2O [Estradiol3S, estradiol 3-sulfate] | > 200 µM |  |
| C[C@]12CC[C@@H]3c4ccc(OS(=O)(=O)O)cc4CC[C@H]3[C@@H]1CCC2=O [Estrone3S, estrone 3-sulfate] | > 200 µM |  |
| C[C@]12CC[C@@H]3c4ccc(OS(=O)(=O)O)cc4CC[C@H]3[C@@H]1C[C@@H](O)[C@@H]2O [Estriol3S, estriol 3-sulfate] | > 200 µM |  |
| CC(=O)O[C@H]1CC[C@@]2(C)C(=CC[C@H]3[C@@H]4CC[C@H]([C@H](C)CCCC(C)C)[C@@]4(C)CC[C@@H]32)C1 [C3A, cholesterol 3-acetate] | > 200 µM |  |
